Data on 30 molecules can be found in patent US8394969B2, “Cyclic benzimidazole derivatives useful as anti-diabetic agents” (Merck Sharp & Dohme Corp., priority 2008, dated 2013).

Structures can show the parent of a compound that is named as a salt. Where two headings read alike, the source gives them in different places. Bounds are passed on as bounds.

For the assay, the target named is recombinant human AMPK complex 1 (containing α1β1γ1) (Homo sapiens, UniProt Q13131+Q9Y478). Briefly: […] (in vitro AMPK activation assay). The format is biochemical. Conditions: for Emax: basal activity subtracted; for EC50: read-out: EC50. On the procedure:
Recombinant viruses were generated by cotransfection of AMPK/pBacPak9 clones with Baculogold baculovirus DNA (Pharmingen) in spodoptera frugiperda 21 cells according to the manufacturer's instructions. Each round of virus amplification was performed for 5 days in Grace's medium containing 10% serum. Virus that had been subjected to three rounds of amplification was used for all protein production procedures. To express the AMPK complex, sf21 cells were adapted to serum free medium (SF900 II, Invitrogen) by sequential dilution from serum containing stocks into SF900 II medium and maintained in shaker flasks at 90 rpm at 27° C. The recombinant AMPK enzyme complex was produced by triple infection, one recombinant virus for each of the subunits, in sf21 cells under serum free conditions. […] Cells were harvested by centrifugation at 10,000×g for 15 minutes after 72 hours of infection with viruses. The insect cell pellet from 2 liters of culture was resuspended in 50 ml lysis buffer (20 mM Tris-HCl, 50 mM NaCl, 50 mM NaF, 30 mM Na PPi, 0.25 M sucrose, 10 mM ZnCl2, 2 mM DTT, 0.4 mg/ml digitonin) and subjected to two cycles of freeze-thaw lysis in a dry-ice ethanol bath. Insoluble material was removed by centrifugation at 10,000×g and the supernatant was fractionated with use of polyethylene glycol (PEG).
The total in vitro AMPK activation assay volume is 50 μl in a 96-well plate. […] The reaction was initiated with addition of the enzyme. After 30-minute incubation at 30° C., the reaction was stopped by addition of 80 μl 1% H3PO4. Aliquots (100 μl) were transferred to 96-well MultiScreen plates (MAPHNOB50; Millipore Corp., Bedford, Mass., USA). The plate was washed three times with 1% H3PO4 followed by detection in a Top-count. The counts per minute from the basal activity (the reaction without activator) was subtracted from each well and the data were expressed as % maximum AMP activation followed by EC50 calculation.

The mark [1] stands for this setting: recombinant human AMPK complex 1 (α1β1γ1), read-out: % Maximum AMP Activation of human AMPK Complex 1.
[2] abbreviates: recombinant human AMPK complex 1 (α1β1γ1).

recombinant human AMPK complex 1 (containing α1β1γ1), sequence (Q13131 whole entry): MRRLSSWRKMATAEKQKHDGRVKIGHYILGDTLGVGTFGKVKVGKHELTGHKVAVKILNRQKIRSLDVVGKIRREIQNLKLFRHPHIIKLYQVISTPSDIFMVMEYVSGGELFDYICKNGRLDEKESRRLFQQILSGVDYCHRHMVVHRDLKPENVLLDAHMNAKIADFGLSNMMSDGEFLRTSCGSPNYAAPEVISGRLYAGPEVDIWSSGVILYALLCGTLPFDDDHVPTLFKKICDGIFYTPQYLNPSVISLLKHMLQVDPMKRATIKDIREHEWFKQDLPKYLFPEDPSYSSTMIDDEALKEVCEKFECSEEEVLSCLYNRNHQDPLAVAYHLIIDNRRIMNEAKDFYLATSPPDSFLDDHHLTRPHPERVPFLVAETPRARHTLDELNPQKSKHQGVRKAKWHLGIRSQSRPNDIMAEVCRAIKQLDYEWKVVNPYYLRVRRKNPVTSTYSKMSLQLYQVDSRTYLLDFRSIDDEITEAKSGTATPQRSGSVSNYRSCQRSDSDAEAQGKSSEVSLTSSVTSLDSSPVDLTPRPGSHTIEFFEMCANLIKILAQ
recombinant human AMPK complex 1 (containing α1β1γ1), sequence (Q9Y478 whole entry): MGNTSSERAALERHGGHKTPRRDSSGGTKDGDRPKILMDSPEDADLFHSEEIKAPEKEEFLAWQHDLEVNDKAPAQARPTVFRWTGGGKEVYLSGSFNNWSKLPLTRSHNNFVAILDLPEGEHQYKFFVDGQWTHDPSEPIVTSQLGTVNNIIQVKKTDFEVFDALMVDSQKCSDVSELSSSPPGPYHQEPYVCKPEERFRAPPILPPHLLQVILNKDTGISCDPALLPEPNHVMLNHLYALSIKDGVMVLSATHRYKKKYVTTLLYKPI
recombinant human AMPK complex 1 (containing α1β1γ1), sequence (P54619 whole entry partner): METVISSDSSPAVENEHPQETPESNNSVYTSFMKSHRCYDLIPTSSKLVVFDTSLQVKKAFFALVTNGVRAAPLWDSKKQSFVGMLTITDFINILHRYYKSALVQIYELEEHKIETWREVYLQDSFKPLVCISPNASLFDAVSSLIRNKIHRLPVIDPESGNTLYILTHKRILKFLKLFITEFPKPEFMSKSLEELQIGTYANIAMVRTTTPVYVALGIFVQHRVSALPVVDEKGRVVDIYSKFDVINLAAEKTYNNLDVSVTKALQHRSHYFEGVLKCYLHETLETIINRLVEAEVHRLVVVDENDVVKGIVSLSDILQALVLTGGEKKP

Consider `COC(=O)c1cc(Oc2nc3cc(C#Cc4cncn4C)c(Cl)cc3[nH]2)ccc1C` [Example 136, 5-[6-Chloro-5-(3-methyl-3H-imidazol-4-ylethynyl)-1H-benzoimidazol-2-yloxy]-2-methyl-benzoic acid methyl ester], for which, under setting [1], the Emax was > 80%.

Take `Cc1ccc(Oc2nc3cc(-c4cccc5c4CCN5C(C)C)c(Cl)cc3[nH]2)cc1C(=O)O` [Example 324, 5-{[6-chloro-5-(1-isopropyl-2,3-dihydro-1H-indol-4-yl)-1H-benzimidazol-2-yl]oxy}-2-methylbenzoic acid]: under setting [1], the Emax was > 80%.

`Cc1ccc(Oc2nc3cc(-c4ccc(-c5ccc[n+]([O-])c5)cc4)c(Cl)cc3[nH]2)cc1C(=O)O` [Example 161, 5-{6-Chloro-5-[4-(1-oxy-pyridin-3-yl)-phenyl]-1H-benzoimidazol-2-yloxy}-2-methyl-benzoic acid]: under setting [1], the Emax is > 80%.

For the molecule `COc1cccc(-c2cc3nc(Oc4ccc(C)c(C(=O)O)c4)[nH]c3cc2Cl)n1` [Example 334, 2-(3-carboxy-4-methylphenoxy)-6-chloro-5-(6-methoxypyridin-2-yl)-1H-3,1-benzimidazol-3-ium formate], the Emax under setting [1] is > 80%.

For `O=C(NS(=O)(=O)c1ccccc1)c1cccc(Oc2nc3cc(-c4ccc(-c5ccccc5)cc4)c(Cl)cc3[nH]2)c1` [Example 222, N-[3-(5-Biphenyl-4-yl-6-chloro-1H-benzoimidazol-2-yloxy)-benzoyl]-benzenesulfonamide], the Emax under setting [1] was > 80%.

Take `Cc1ccc(Oc2nc3cc(C#Cc4ccc(-c5cnco5)cc4)c(Cl)cc3[nH]2)cc1C(=O)O` [Example 120, 5-[6-Chloro-5-(4-oxazol-5-yl-phenylethynyl)-1H-benzoimidazol-2-yloxy]-2-methyl-benzoic acid]: the Emax under setting [1] was > 80%.

In the case of `CCCc1ccc(-c2cc3nc(Oc4ccc(C)c(C(=O)O)c4)[nH]c3cc2Cl)cc1` [Example 347, 2-(3-carboxy-4-methylphenoxy)-6-chloro-5-(4-propylphenyl)-1H-3,1-benzimidazol-3-ium trifluoroacetate], the Emax under setting [1] is > 80%.

For `COC(=O)c1cc(Oc2nc3cc(C#Cc4ccccc4F)c(Cl)cc3[nH]2)ccc1C` [Example 119, 5-[6-Chloro-5-(2-fluoro-phenylethynyl)-1H-benzoimidazol-2-yloxy]-2-methyl-benzoic acid methyl ester], the Emax under setting [1] is > 80%.

For the molecule `O=C(O)c1cccc(Sc2nc3cc(-c4cccs4)c(Cl)cc3[nH]2)c1` [Example 65, 3-{[6-chloro-5-(2-thienyl)-1H-benzimidazol-2-yl]thio}benzoic acid], the Emax under setting [1] is > 80%.

With `Cc1ccc(Oc2nc3cc(-c4ccc5c(c4)C(C)(C)CCC5(C)C)c(Cl)cc3[nH]2)cc1C(=O)O` [Example 358, 5-[6-Chloro-5-(5,5,8,8-tetramethyl-5,6,7,8-tetrahydro-naphthalen-2-yl)-1H-benzoimidazol-2-yloxy]-2-methyl-benzoic acid], the Emax under setting [1] is > 80%.

Regarding `COc1ncccc1-c1ccc(-c2cc3nc(Oc4ccc(C)c(C(=O)O)c4)[nH]c3cc2Cl)cc1` [Example 199, 5-({6-chloro-5-[4-(2-methoxypyridin-3-yl)phenyl]-1-benzimidazol-2-yl}oxy)-2-methylbenzoic acid], the Emax under setting [1] was > 80%.

For the molecule `Cc1ccccc1C#Cc1cc2nc(Oc3ccc(C)c(C(=O)O)c3)[nH]c2cc1Cl` [Example 96, 5-(6-Chloro-5-o-tolylethynyl-1H-benzoimidazol-2-yloxy)-2-methyl-benzoic acid], the Emax under setting [1] was > 80%.

Consider `Cc1cc(C)c(C(=O)O)cc1Oc1nc2cc(-c3ccc(-c4ccccc4)cc3)c(Cl)cc2[nH]1` [Example 208, 5-(5-Biphenyl-4-yl-6-chloro-1H-benzoimidazol-2-yloxy)-2,4-dimethyl-benzoic acid], for which the Emax under setting [1] is > 80%.

Consider `COc1ccc2cc(-c3cc4nc(Oc5ccc(CC(=O)O)cc5)[nH]c4cc3Cl)ccc2c1` [Example 245, {4-[6-Chloro-5-(6-methoxy-naphthalen-2-yl)-1H-benzoimidazol-2-yloxy]-phenyl}-acetic acid], for which, under setting [1], the Emax is > 80%.

On to `O=C(O)c1cc(COc2nc3cc(-c4ccc(-c5ccccc5)cc4)c(Cl)cc3[nH]2)cc(C(=O)O)c1` [Example 227, 5-(5-Biphenyl-4-yl-6-chloro-1H-benzoimidazol-2-yloxymethyl)-isophthalic acid], for which the Emax under setting [1] was > 80%.

Turning to `Cc1ccc(Oc2nc3cc(-c4ccc5ccn(C)c5c4)c(Cl)cc3[nH]2)cc1C(=O)O` [Example 284, 5-[6-Chloro-5-(1-methyl-1H-indol-6-yl)-1H-benzoimidazol-2-yloxy]-2-methyl-benzoic acid], under setting [1], the Emax is > 80%.

Regarding `O=C(O)Cc1cc(O)cc(Oc2nc3cc(-c4ccc(-c5ccccc5)cc4)c(Cl)cc3[nH]2)c1` [Example 21, [3-(5-Biphenyl-4-yl-6-chloro-1H-benzoimidazol-2-yloxy)-5-hydroxy-phenyl]-acetic acid], the Emax under setting [1] was > 80%.

As to `Cc1ccc(C(=O)O)cc1Oc1nc2cc(-c3ccc4c(ccn4C)c3)c(Cl)cc2[nH]1` [Example 216, 3-[6-Chloro-5-(1-methyl-1H-indol-5-yl)-1H-benzoimidazol-2-yloxy]-4-methyl-benzoic acid], the Emax under setting [1] is > 80%.

As for `Cc1ccc(Oc2nc3cc(-c4cc5ccn(CCO)c5cc4F)c(Cl)cc3[nH]2)cc1C(=O)O` [Example 325, 5-({6-chloro-5-[6-fluoro-1-(2-hydroxyethyl)-1H-indol-5-yl]-1H-benzimidazol-2-yl}oxy)-2-methylbenzoic acid], the EC50 under setting [2] came to 5 nM.

Turning to `COC(=O)c1cc(Oc2nc3cc(-c4ccc(-c5ccc(=O)n(C)c5)cc4)c(Cl)cc3[nH]2)ccc1C` [Example 170, 5-{6-Chloro-5-[4-(1-methyl-6-oxo-1,6-dihydro-pyridin-3-yl)-pheny1]-1H-benzoimidazol-2-yloxy}-2-methyl-benzoic acid methyl ester], under setting [1], the Emax was > 80%.

Consider `COC(=O)c1cc(Oc2nc3cc(C#Cc4ccc(OC)cc4)c(Cl)cc3[nH]2)ccc1C` [Example 122, 5-[6-Chloro-5-(4-methoxy-phenylethynyl)-1H-benzoimidazol-2-yloxy]-2-methyl-benzoic acid methyl ester], for which the Emax under setting [1] was > 80%.

As for `COc1cc(C(=O)O)ccc1C#Cc1cc2nc(Oc3ccc(C)c(C(=O)O)c3)[nH]c2cc1Cl` [Example 127, 5-({5-[(4-carboxy-2-methoxyphenyl)ethynyl]-6-chloro-1H benzimidazol-2-yl}oxy)-2-methylbenzoic acid], the Emax under setting [1] was > 80%.

Take `Cc1ccc(Oc2nc3cc(-c4ccc(N5CCCC5)cc4)c(Cl)cc3[nH]2)cc1C(=O)O` [Example 231, 5-{[6-chloro-5-(4-pyrrolidin-1-ylphenyl)-1H-benzimidazol-2-yl]oxy}-2-methylbenzoic acid]: the half-maximal effective concentration (EC50) under setting [2] worked out at 7 nM.

`Cc1ccc(-c2cc3nc(Oc4ccc(C)c(C(=O)O)c4)[nH]c3cc2Cl)cc1C` [Example 340, Ammonium 5-{[6-chloro-5-(3,4-dimethylphenyl)-1H-benzimidazol-2-yl]oxy}-2-methylbenzoate]: for the setting “read-out: % Maximum AMP Activation of human AMPK Complex 1, recombinant human AMPK complex 1 (α1β1γ1)”, the Emax was > 80%.

As for `Cc1ccc(Oc2nc3cc(-c4cc5ccccc5o4)c(Cl)cc3[nH]2)cc1C(=O)O` [Example 356, 5-(5-Benzofuran-2-yl-6-chloro-1H-benzoimidazol-2-yloxy)-2-methyl-benzoic acid], the Emax under setting [1] was > 80%.

Consider `Cc1ccc(Oc2nc3cc(-c4ccc(N(C)C)c(C(F)(F)F)c4)c(Cl)cc3[nH]2)cc1C(=O)O` [Example 295, 2-(3-carboxy-4-methylphenoxy)-6-chloro-5-[4-(dimethylamino)-3-(trifluoromethyl)phenyl]-1H-3,1-benzimidazol-3-ium chloride], for which the Emax under setting [1] was > 80%.

In the case of `Cc1ccc(Oc2nc3cc(-c4cnn(C)c4)c(Cl)cc3[nH]2)cc1C(=O)O` [Example 57, 5-[6-Chloro-5-(1-methyl-1H-pyrazol-4-yl)-1H-benzoimidazol-2-yloxy]-2-methyl-benzoic acid], the Emax under setting [1] was > 80%.

For the molecule `Cc1ccc(Oc2nc3cc(-c4ccc(-c5c(C)noc5C)cc4)c(Cl)cc3[nH]2)cc1C(=O)O` [Example 204, 5-({6-chloro-5-[4-(3,5-dimethylisoxazol-4-yl)phenyl]-1H-benzimidazol-2-yl}oxy)-2-methylbenzoic acid], the Emax under setting [1] was > 80%.

As to `Cc1ccc(Oc2nc3cc(C#Cc4ccc(OC(F)(F)F)cc4)c(Cl)cc3[nH]2)cc1C(=O)O` [Example 95, 5-[6-Chloro-5-(4-trifluoromethoxy-phenylethynyl)-1H-benzoimidazol-2-yloxy]-2-methyl-benzoic acid], the Emax under setting [1] is > 80%.

As for `Cc1ccc(Oc2nc3cc(-c4ccc5nnn(C)c5c4)c(Cl)cc3[nH]2)cc1C(=O)O` [Example 149, 5-[6-Chloro-5-(3-methyl-3H-benzotriazol-5-yl)-1H-benzoimidazol-2-yloxy]-2-methyl-benzoic acid], under setting [1], the Emax was > 80%.

By EC50 is commonly meant the concentration needed to bring the measured effect to its halfway point.
